From PubChem BioAssay (NCI)
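Five compound concentrations were applied to cells in 96-well plates for 48 hours; endpoints were derived by simple linear interpolation of the resulting dose-response curve. TGI: concentration producing complete growth inhibition.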

Experiments:
Test in all cases: growth of human tumour cells (NCI), 48 h
786-0 renal = test system: 786-0 renal
A498 renal = test system: A498 renal
A549 NSCLC = test system: A549 NSCLC
ACHN renal = test system: ACHN renal
CAKI-1 renal = test system: CAKI-1 renal
CCRF-CEM leukemia = test system: CCRF-CEM leukemia
COLO 205 colon = test system: COLO 205 colon
DLD-1 colon = test system: DLD-1 colon
DMS 114 small cell lung = test system: DMS 114 small cell lung
EKVX NSCLC = test system: EKVX NSCLC
HCC-2998 colon = test system: HCC-2998 colon
HCT-116 colon = test system: HCT-116 colon
HL-60(TB) leukemia = test system: HL-60(TB) leukemia
HOP-18 NSCLC = test system: HOP-18 NSCLC
HOP-62 NSCLC = test system: HOP-62 NSCLC
HOP-92 NSCLC = test system: HOP-92 NSCLC
HT29 colon = test system: HT29 colon
IGROV1 ovarian = test system: IGROV1 ovarian
K-562 leukemia = test system: K-562 leukemia
KM12 colon = test system: KM12 colon
KM20L2 colon = test system: KM20L2 colon
LOX IMVI melanoma = test system: LOX IMVI melanoma
LXFL 529 NSCLC = test system: LXFL 529 NSCLC
M14 melanoma = test system: M14 melanoma
M19-MEL melanoma = test system: M19-MEL melanoma
MALME-3M melanoma = test system: MALME-3M melanoma
MOLT-4 leukemia = test system: MOLT-4 leukemia
NCI-H226 lung = test system: NCI-H226 lung
NCI-H23 lung = test system: NCI-H23 lung
NCI-H460 lung = test system: NCI-H460 lung
NCI-H522 lung = test system: NCI-H522 lung
OVCAR-3 ovarian = test system: OVCAR-3 ovarian
OVCAR-4 ovarian = test system: OVCAR-4 ovarian
OVCAR-8 ovarian = test system: OVCAR-8 ovarian
RPMI-8226 leukemia = test system: RPMI-8226 leukemia
RXF 393 renal = test system: RXF 393 renal
RXF-631 renal = test system: RXF-631 renal
SF-268 CNS = test system: SF-268 CNS
SF-295 CNS = test system: SF-295 CNS
SF-539 CNS = test system: SF-539 CNS
SK-MEL-28 melanoma = test system: SK-MEL-28 melanoma
SK-MEL-5 melanoma = test system: SK-MEL-5 melanoma
SK-OV-3 ovarian = test system: SK-OV-3 ovarian
SN12C renal = test system: SN12C renal
SNB-19 CNS = test system: SNB-19 CNS
SNB-75 CNS = test system: SNB-75 CNS
SNB-78 CNS = test system: SNB-78 CNS
SR leukemia = test system: SR leukemia
SW-620 colon = test system: SW-620 colon
TK-10 renal = test system: TK-10 renal
U251 CNS = test system: U251 CNS
UACC-257 melanoma = test system: UACC-257 melanoma
UACC-62 melanoma = test system: UACC-62 melanoma
UO-31 renal = test system: UO-31 renal
XF 498 CNS = test system: XF 498 CNS
DMS 273 small cell lung = test system: DMS 273 small cell lung
HCT-15 colon = test system: HCT-15 colon
OVCAR-5 ovarian = test system: OVCAR-5 ovarian
SK-MEL-2 melanoma = test system: SK-MEL-2 melanoma

Question: For `COc1ccc(C2(CN(C)C)COc3cc(OC)c(OC)cc3C2=O)cc1OC` (stereo not drawn), which TGI (786-0 renal) is on record?
Answer: The TGI was over 100 µM.

Question: What about the TGI (A498 renal) of the same molecule?
Answer: Its TGI is over 100 µM.

Question: What about the TGI (A549 NSCLC) of the same molecule?
Answer: Its TGI is over 100 µM.

Question: And the TGI (ACHN renal)?
Answer: Its TGI is over 100 µM.

Question: And the TGI (CAKI-1 renal)?
Answer: The TGI was over 100 µM.

Question: And the TGI (CCRF-CEM leukemia)?
Answer: Its TGI is 58.1 µM.

Question: And the TGI (COLO 205 colon)?
Answer: The TGI was 76.2 µM.

Question: What about the TGI (DLD-1 colon) of the same molecule?
Answer: The TGI was 44.6 µM.

Question: What about the TGI (DMS 114 small cell lung) of the same molecule?
Answer: The TGI was 78.3 µM.

Question: And the TGI (EKVX NSCLC)?
Answer: The TGI was over 100 µM.

Question: And the TGI (HCC-2998 colon)?
Answer: The TGI was over 100 µM.

Question: And the TGI (HCT-116 colon)?
Answer: Its TGI is 30.3 µM.

Question: And the TGI (HL-60(TB) leukemia)?
Answer: Its TGI is 48.2 µM.

Question: What about the TGI (HOP-18 NSCLC) of the same molecule?
Answer: The TGI was over 100 µM.

Question: And the TGI (HOP-62 NSCLC)?
Answer: Its TGI is over 100 µM.

Question: And the TGI (HOP-92 NSCLC)?
Answer: The TGI was over 100 µM.

Question: And the TGI (HT29 colon)?
Answer: The TGI was over 100 µM.

Question: And the TGI (IGROV1 ovarian)?
Answer: The TGI was over 100 µM.

Question: What about the TGI (K-562 leukemia) of the same molecule?
Answer: The TGI was over 100 µM.

Question: And the TGI (KM12 colon)?
Answer: The TGI was over 100 µM.

Question: And the TGI (KM20L2 colon)?
Answer: The TGI was over 100 µM.

Question: What about the TGI (LOX IMVI melanoma) of the same molecule?
Answer: Its TGI is 31.1 µM.

Question: And the TGI (LXFL 529 NSCLC)?
Answer: Its TGI is 48.8 µM.

Question: What about the TGI (M14 melanoma) of the same molecule?
Answer: The TGI was over 100 µM.

Question: And the TGI (M19-MEL melanoma)?
Answer: Its TGI is over 100 µM.

Question: And the TGI (MALME-3M melanoma)?
Answer: Its TGI is over 100 µM.

Question: What about the TGI (MOLT-4 leukemia) of the same molecule?
Answer: Its TGI is over 100 µM.

Question: And the TGI (NCI-H226 lung)?
Answer: Its TGI is over 100 µM.

Question: And the TGI (NCI-H23 lung)?
Answer: Its TGI is 94.4 µM.

Question: What about the TGI (NCI-H460 lung) of the same molecule?
Answer: Its TGI is over 100 µM.

Question: And the TGI (NCI-H522 lung)?
Answer: Its TGI is over 100 µM.

Question: And the TGI (OVCAR-3 ovarian)?
Answer: Its TGI is over 100 µM.

Question: And the TGI (OVCAR-4 ovarian)?
Answer: The TGI was over 100 µM.

Question: What about the TGI (OVCAR-8 ovarian) of the same molecule?
Answer: Its TGI is over 100 µM.

Question: What about the TGI (RPMI-8226 leukemia) of the same molecule?
Answer: The TGI was 63.4 µM.

Question: What about the TGI (RXF 393 renal) of the same molecule?
Answer: The TGI was 79.2 µM.

Question: And the TGI (RXF-631 renal)?
Answer: The TGI was over 100 µM.

Question: What about the TGI (SF-268 CNS) of the same molecule?
Answer: Its TGI is over 100 µM.

Question: What about the TGI (SF-295 CNS) of the same molecule?
Answer: The TGI was over 100 µM.

Question: And the TGI (SF-539 CNS)?
Answer: The TGI was over 100 µM.

Question: And the TGI (SK-MEL-28 melanoma)?
Answer: Its TGI is over 100 µM.

Question: And the TGI (SK-MEL-5 melanoma)?
Answer: The TGI was 60.7 µM.

Question: What about the TGI (SK-OV-3 ovarian) of the same molecule?
Answer: Its TGI is over 100 µM.

Question: And the TGI (SN12C renal)?
Answer: Its TGI is over 100 µM.

Question: And the TGI (SNB-19 CNS)?
Answer: The TGI was over 100 µM.

Question: What about the TGI (SNB-75 CNS) of the same molecule?
Answer: The TGI was over 100 µM.

Question: What about the TGI (SNB-78 CNS) of the same molecule?
Answer: The TGI was over 100 µM.

Question: And the TGI (SR leukemia)?
Answer: Its TGI is over 100 µM.

Question: What about the TGI (SW-620 colon) of the same molecule?
Answer: Its TGI is 45.8 µM.

Question: What about the TGI (TK-10 renal) of the same molecule?
Answer: The TGI was over 100 µM.

Question: What about the TGI (U251 CNS) of the same molecule?
Answer: Its TGI is over 100 µM.

Question: What about the TGI (UACC-257 melanoma) of the same molecule?
Answer: The TGI was over 100 µM.

Question: What about the TGI (UACC-62 melanoma) of the same molecule?
Answer: The TGI was over 100 µM.

Question: And the TGI (UO-31 renal)?
Answer: The TGI was over 100 µM.

Question: What about the TGI (XF 498 CNS) of the same molecule?
Answer: Its TGI is over 100 µM.

Question: What does the source list for `COc1ccc2[nH]c3c(cnn4cnnc34)c2c1`?
Answer: TGI (786-0 renal): > 100 µM; TGI (A549 NSCLC): > 100 µM; TGI (ACHN renal): > 100 µM; TGI (CAKI-1 renal): > 100 µM; TGI (CCRF-CEM leukemia): > 100 µM; TGI (COLO 205 colon): > 100 µM; TGI (DLD-1 colon): > 100 µM; TGI (DMS 114 small cell lung): > 100 µM; TGI (DMS 273 small cell lung): > 100 µM; TGI (EKVX NSCLC): > 100 µM; TGI (HCC-2998 colon): > 100 µM; TGI (HCT-15 colon): > 100 µM; TGI (HL-60(TB) leukemia): > 100 µM; TGI (HOP-18 NSCLC): > 100 µM; TGI (HOP-62 NSCLC): > 100 µM; TGI (HOP-92 NSCLC): > 100 µM; TGI (HT29 colon): > 100 µM; TGI (IGROV1 ovarian): > 100 µM; TGI (K-562 leukemia): > 100 µM; TGI (KM12 colon): > 100 µM; TGI (KM20L2 colon): > 100 µM; TGI (LOX IMVI melanoma): > 100 µM; TGI (LXFL 529 NSCLC): > 100 µM; TGI (M14 melanoma): > 100 µM; TGI (M19-MEL melanoma): > 100 µM; TGI (MALME-3M melanoma): > 100 µM; TGI (MOLT-4 leukemia): > 100 µM; TGI (NCI-H23 lung): > 100 µM; TGI (NCI-H460 lung): > 100 µM; TGI (NCI-H522 lung): > 100 µM; TGI (OVCAR-3 ovarian): > 100 µM; TGI (OVCAR-4 ovarian): > 100 µM; TGI (OVCAR-5 ovarian): > 100 µM; TGI (OVCAR-8 ovarian): > 100 µM; TGI (RPMI-8226 leukemia): > 100 µM; TGI (RXF 393 renal): > 100 µM; TGI (RXF-631 renal): > 100 µM; TGI (SF-268 CNS): > 100 µM; TGI (SF-295 CNS): > 100 µM; TGI (SF-539 CNS): > 100 µM; TGI (SK-MEL-2 melanoma): > 100 µM; TGI (SK-MEL-28 melanoma): > 100 µM; TGI (SK-MEL-5 melanoma): > 100 µM; TGI (SK-OV-3 ovarian): > 100 µM; TGI (SN12C renal): > 100 µM; TGI (SNB-19 CNS): > 100 µM; TGI (SNB-75 CNS): > 100 µM; TGI (SW-620 colon): > 100 µM; TGI (TK-10 renal): > 100 µM; TGI (U251 CNS): > 100 µM; TGI (UACC-257 melanoma): > 100 µM; TGI (UACC-62 melanoma): > 100 µM; TGI (UO-31 renal): > 100 µM
